15 molecules from ChEMBL document CHEMBL4602657, “Design and evaluation of Nrf2 activators with 1,3,4-oxa/thiadiazole core as neuro-protective agents against oxidative stress in PC-12 cells” (Bioorg Med Chem Lett, 2020) can be followed below.

In data set [1] the target is T1, Nuclear factor erythroid 2-related factor 2 (Homo sapiens) (UniProt Q16236).
T1 sequence (whole entry): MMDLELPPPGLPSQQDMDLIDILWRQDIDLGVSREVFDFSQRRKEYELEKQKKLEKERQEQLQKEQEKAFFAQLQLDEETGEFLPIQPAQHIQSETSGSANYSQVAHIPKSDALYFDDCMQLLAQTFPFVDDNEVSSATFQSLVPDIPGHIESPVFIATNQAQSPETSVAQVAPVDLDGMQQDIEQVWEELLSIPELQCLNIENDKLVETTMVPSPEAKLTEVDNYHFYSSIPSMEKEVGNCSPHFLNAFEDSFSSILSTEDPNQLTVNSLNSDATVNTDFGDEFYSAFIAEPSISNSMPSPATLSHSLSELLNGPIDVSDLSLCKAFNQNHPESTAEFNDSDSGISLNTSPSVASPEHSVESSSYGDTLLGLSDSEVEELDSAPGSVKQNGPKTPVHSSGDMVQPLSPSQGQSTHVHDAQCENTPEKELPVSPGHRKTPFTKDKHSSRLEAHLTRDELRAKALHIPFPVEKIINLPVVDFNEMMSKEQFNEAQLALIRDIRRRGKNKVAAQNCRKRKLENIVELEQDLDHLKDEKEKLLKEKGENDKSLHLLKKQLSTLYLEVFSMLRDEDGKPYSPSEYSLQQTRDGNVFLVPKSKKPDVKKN
The experiment in a line: Activation of Nrf2 in human HepG2-ARE-C8 cells assessed as fold change at 0.1 uM measured after 12 hrs by luciferase reporter gene assay relative to control. Type of data set: cell-based. A general note: A reporter such as luciferase makes a cellular process visible.

Data set [2] concerns the target T1, Nuclear factor erythroid 2-related factor 2 (Homo sapiens). Description: Activation of Nrf2 in human HepG2-ARE-C8 cells assessed as fold change at 1 uM measured after 12 hrs by luciferase reporter gene assay relative to control. The data set is classed as cell-based.
Data set [3] has the same target. Description: Activation of Nrf2 in human HepG2-ARE-C8 cells assessed as fold change at 10 uM measured after 12 hrs by luciferase reporter gene assay relative to control. The data set is classed as cell-based.
For data set [4] the target is unchanged. The experiment in a line: Activation of Nrf2 in human HepG2-ARE-C8 cells assessed as fold change at 20 uM measured after 12 hrs by luciferase reporter gene assay relative to control. Type of data set: cell-based.
The target is the same in data set [5]. The experiment in a line: Activation of Nrf2 in human HepG2-ARE-C8 cells assessed as fold change at 40 uM measured after 12 hrs by luciferase reporter gene assay relative to control. Type of data set: cell-based.
Data set [6] has the same target. Description: Activation of Nrf2 in human HepG2-ARE-C8 cells assessed as fold change at 80 uM measured after 12 hrs by luciferase reporter gene assay relative to control. Type of data set: cell-based.
The subject of data set [7] is PC-12. The experiment in a line: Cytotoxicity against rat PC12 cells assessed as reduction in cell viability incubated for 24 hrs by MTT assay. Type of data set: cell-based. To be noted: PC-12, 24 h.
The subject of data set [8] is SH-SY5Y. The experiment in a line: Cytotoxicity against human SH-SY5Y cells assessed as reduction in cell viability at 100 uM by MTT assay. Type of data set: cell-based. (In general: Tetrazolium dyes change colour on reduction, which living cells bring about.)
Data set [9] relates to SH-SY5Y. The experiment in a line: Neuroprotective activity in human SH-SY5Y cells assessed as reduction in H2O2-induced cell damage at 5 uM preincubated for 6 hrs followed by H2O2 treatment and measured after 12 hrs by MTT assay. Type of data set: functional, cell-based.
The subject of data set [10] is SH-SY5Y. The experiment in a line: Neuroprotective activity in human SH-SY5Y cells assessed as reduction in H2O2-induced cell damage at 10 to 20 uM preincubated for 6 hrs followed by H2O2 treatment and measured after 12 hrs by MTT assay. Type of data set: functional, cell-based.
Data set [11] in a line: Lipophilicity, logD of the compound at pH 7.4. The data set is classed as physicochemical. To be noted: buffer.
Data set [12] can be described thus: Intrinsic aqueous solubility of the compound. Type of data set: physicochemical. To be noted: read-out: Intrinsic_solubility.
Data set [13] concerns PC-12. Description: Upregulation of Nrf2 mRNA in rat PC12 cell incubated for 12 hrs by qRT-PCR analysis. The data set is classed as functional, cell-based. On the technique in general: In qPCR the cycle at which signal appears reflects the starting amount.
The subject of data set [14] is PC-12. Description: Upregulation of NQ-O1 mRNA in rat PC12 cell incubated for 12 hrs by qRT-PCR analysis. Type of data set: functional, cell-based.
The test system of data set [15] is PC-12. Description: Upregulation of HO-1 mRNA in rat PC12 cell incubated for 12 hrs by qRT-PCR analysis. The data set is classed as functional, cell-based.
Data set [16] concerns PC-12. Description: Upregulation of Nrf2 protein level in rat PC12 cell incubated for 12 hrs by Western blot analysis. The data set is classed as functional, cell-based.
Data set [17] has as its system PC-12. Description: Upregulation of NQ-O1 protein level in rat PC12 cell incubated for 12 hrs by Western blot analysis. The data set is classed as functional, cell-based.
Data set [18] concerns PC-12. The experiment in a line: Upregulation of HO-1 protein level in rat PC12 cell incubated for 12 hrs by Western blot analysis. The data set is classed as functional, cell-based.
Data set [19] in a line: Permeability of the compound by PAMPA. The data set is classed as ADME. To be noted: read-out: permeability.

Converted amounts (≈) assume the structure as drawn. The source made the active and inactive calls. No cut-off for these calls is given here.

On to `Brc1ccc(-c2nnc(-c3ccc4nc[nH]c4c3)o2)cc1`, for which the fold change (FC) was determined as 2.05 in data set [1]; 4.85 in data set [2]; 7.98 in data set [3]; 8.08 in [4]; 6.23 in data set [5]; 7.98 in data set [6].
As usually defined, the IC50 is the concentration needed to halve the response being measured. As for `Fc1ccc(-c2nnc(-c3ccc4nc[nH]c4c3)s2)cc1`, the fold change (FC) in data set [1] stood at 1.6; in [2] it was 3.25; in data set [3], 13.1; in data set [4] it was 14.9; in data set [5], 22.3; in [6], 9.9. Moreover, the IC50 in [7] was above 500 µM. The Activity result in data set [8] is listed as “Non-Toxic”. For the same molecule, the outcome in data set [9] was inactive. Also, in [10], the result was Active.
As for `CCCCc1ccc(-c2nnc(-c3ccc4nc[nH]c4c3)s2)cc1`, the fold change (FC) in data set [1] worked out at 1.08; in [2], 2.33; in data set [3] it was 2.3; in data set [4] it was 1.68; in data set [5], 1.33; in data set [6] it was 1.43.
The term logD denotes lipophilicity at a set pH, counting ionised and neutral species. As to `Fc1ccc(-c2nnc(-c3ccc4nc[nH]c4c3)o2)cc1`, the fold change (FC) came to 1.58 in data set [1]; 1.28 in [2]; 2.6 in [3]; 6.83 in data set [4]; 8.73 in data set [5]; 24.4 in data set [6]. Further, the logD in data set [11] amounted to 2.89. Further, in data set [12], the solubility was found to be 102 µM (≈ 28.7 µg/mL).
`N#Cc1ccc(-c2nnc(-c3ccc4nc[nH]c4c3)o2)cc1`: the fold change (FC) in data set [1] was 1.4; in data set [2], 1.65; in data set [3] it was 1.33; in data set [4], 2.35; in data set [5] it was 1.78; in [6], 2.83.
On to `O=[N+]([O-])c1ccc(-c2nnc(-c3ccc4nc[nH]c4c3)o2)cc1`, for which the fold change (FC) in data set [1] was found to be 1.5; in data set [2] it was 1.9; in data set [3] it was 7.68; in data set [4], 12.2; in data set [5], 20.1; in [6] it was 33.8. Besides, in [7], the half-inhibitory concentration (IC50) is above 100 µM. Further, in data set [8], the Activity result is reported as “Non-Toxic”. In [9], the result was Active. The outcome in data set [10] was inactive.
For the molecule `CCCCc1ccc(-c2nnc(-c3ccc4nc[nH]c4c3)o2)cc1`, the fold change (FC) came to 1.8 in [1]; 6.73 in data set [2]; 14.8 in data set [3]; 15.9 in [4]; 24.6 in [5]; 19.6 in [6]. Moreover, in data set [7], the 50% inhibitory concentration (IC50) was above 100 µM. The Activity result was “Non-Toxic” in [8]; “Dose-dependent effect” in data set [13]; “Dose-dependent effect” in [14]; “Dose-dependent effect” in data set [15]; “Dose-dependent effect” in [16]; “Dose-dependent effect” in data set [17]. In data set [18], the Activity result was “Dose-dependent effect”. Further, the result in data set [9] was inactive. For the same molecule, the outcome in [10] was Active. In data set [19], the Papp came to 12.3 ×10⁻⁶ cm/s.
As to `c1ccc(-c2ccc(-c3nnc(-c4ccc5nc[nH]c5c4)o3)cc2)cc1`, the fold change (FC) in data set [1] turned out to be 0.9; in data set [2], 1.6; in [3], 1.58; in data set [4] it was 3.15; in data set [5], 5.18; in data set [6], 9.1.
Regarding `COc1cccc(-c2nnc(-c3ccc4nc[nH]c4c3)o2)c1`, the fold change (FC) in [1] worked out at 1.64; in data set [2], 1.72; in data set [3] it was 1.72; in [4], 1.83; in data set [5], 2.41; in data set [6], 7.5.
Take `Cc1ccc(-c2nnc(-c3ccc4nc[nH]c4c3)o2)cc1`: the fold change (FC) in data set [1] came to 1.4; in [2] it was 1.45; in data set [3], 3.25; in data set [4], 3.35; in data set [5], 4.95; in data set [6], 6.6.
With `c1ccc(-c2nnc(-c3ccc4nc[nH]c4c3)o2)cc1`, the fold change (FC) was 1.7 in data set [1]; 2.35 in [2]; 6.7 in [3]; 9.15 in [4]; 13.5 in [5]; 19.1 in data set [6].
For `CC(C)(C)c1cc(O)ccc1O`, the fold change (FC) in data set [1] was found to be 1.68; in data set [2], 1.7; in data set [5], 5.1; in [6] it was 4.73.
In the case of `O=[N+]([O-])c1ccc(-c2nnc(-c3ccc4nc[nH]c4c3)s2)cc1`, the fold change (FC) amounted to 2.2 in data set [1]; 5.75 in [2]; 19.4 in [3]; 17.4 in [4]; 22.2 in data set [5]; 24.6 in data set [6]. Further, the half-inhibitory concentration (IC50) in data set [7] is above 500 µM. For the same molecule, the Activity result in [8] is recorded as “Non-Toxic”. Moreover, in data set [9], the result was Active. In [10], the result was inactive.
Take `Fc1cccc(-c2nnc(-c3ccc4nc[nH]c4c3)o2)c1`: the fold change (FC) in [1] is 1.45; in data set [2], 2.38; in data set [3], 1.35; in [4], 1.65; in data set [5] it was 1.75; in data set [6], 1.63.
On to `c1ccc(-c2nnc(-c3ccc4nc[nH]c4c3)s2)cc1`, for which the fold change (FC) in [1] is 1.7; in data set [2], 2.03; in data set [3], 8.95; in data set [4], 8.18; in data set [5], 13.8; in [6], 15.7.
